Results published in US10987357B2, “Aerosolized fluoroquinolones and uses thereof” (Horizon Orphan, LLC, priority 2005, dated 2021).
Values joined by “and” are separate entries in the source; they are usually repeats but may differ in a detail not shown here. Equal entries are not always repeated. Structures can show the parent of a compound that is named as a salt. Where two headings read alike, the source gives them in different places.

How the values were obtained:
elastase = conditions: cited from earlier work
[1] = in vivo
Description: In the second test, the tolerability and taste of a small aerosol sample from a 0.5 ml aliquot of the test formulation was determined in a single healthy human volunteer, following nebulization in a PARI eFlow nebulizer (Table 12).
The tolerability and taste of the drug during a very brief administration period and for a period of 10 minutes post administration were monitored. Tolerability parameters were of the following types: (i) cough, cough sensation, or sneezing (ii) irritation, burning or tightness of throat, (ii) irritation or runniness in nasal passages or eyes, (iii) irritation, burning or tightness of the lungs or shortness of breadth, and (iv) dizziness, headache, nausea or other systemic effects.

[2] = in vivo; cited from earlier work
[3] = test system: Streptococcus pneumonia (Sp); conditions: Table 6; cited from earlier work
MSSA = conditions: Table 6; cited from earlier work
[4] = test system: methicillin resistant Staphylococcus aureus (MRSA); conditions: cited from earlier work; for MRSA MIC90: Table 6
[5] = test system: Pseudomonas aeruginosa (Pa); conditions: cited from earlier work; for Pa MIC90: Table 6
[6] = in vivo; cited from earlier work; remark: listed apart in the source
[7] = 750 mg oral dose; cited from earlier work
[8] = test system: P. aeruginosa strain PAM 1723; assay: Mouse lung infection efficacy model; conditions: Pseudomonas aeruginosa, PAM1723, in Mus musculus
Description: The inoculum is adjusted to ca. 5×10^6 CFU/ml by correlation of absorbance at 600 nm with predetermined plate counts. […] On day 5, mice are infected by an intratracheal instillation of 0.05 ml of inoculum while under isoflurane anesthesia (5% isoflurane in oxygen running at 4 L/min). […] Mice are sacrificed 1 and 4 hours after treatment, their lungs removed, homogenized and plated to determine colony counts.

physchem = conditions: for Initial Solution pH / Initial Solution Appearance: 10 mg/mL in sterile water; for Initial Solution Appearance: room temperature; for After pH Adjustment Appearance / After pH Adjustment pH / pH of final solution: 10 mg/mL; for After pH Adjustment Appearance / After pH Adjustment pH: titrated with 1N HCl; for solubility at 10 min: aqueous buffer, thermodynamic from solid
Description: A 2 to 20 mg sample of each antibiotic was weighed into sterile plastic tubes and brought up with a volume of sterile water to make a 10 mg/mL solution or suspension of the antibiotic. Samples were incubated for approximately 10 minutes at room temperature with occasional mixing, prior to further handling.
The insoluble solutions were titrated with 1N HCl to the point of visible solubility, and the pH of the solubilized solution determined.
After the pH adjustment, and following a further 10 minute incubation period with occasional mixing, the final appearance of the solutions was determined, just prior to the aerosol tolerability and taste test.

[9] = Rat pharmacokinetic model (IV vs microspray aerosol, intratracheal); format: in vivo, rats; conditions: for AUC: epithelial lining fluid (ELF)
Description: […] Blood samples are taken at various times over 3 hours to determine the plasma pharmacokinetic parameters. […] The plasma and tissue concentrations are determined by an HPLC method and the data are then fit using WinNonlin.

[10] = Gemifloxacin formulations with organic bases: pH and osmolality; format: physicochemical; conditions: before pH adjustment
Text: (§1) It was filtered through a 0.45 micron filter.
as §1, §1, §1, §1

[11] = cited from earlier work
Dissolution rate studies = conditions: 37° C.
[12] = 1 h, read-out: DeltaLOG CPU 1 hr, route IT, dose 25 mg/kg, 1 hr post-drug administration
[13] = 4 h, read-out: DeltaLOG CPU 4 hr, route IT, dose 25 mg/kg, 4 hr post-drug administration
[14] = ip, 1 h, read-out: DeltaLOG CPU 1 hr, route IP, dose 25 mg/kg, 1 hr post-drug administration
[15] = ip, 4 h, read-out: DeltaLOG CPU 4 hr, route IP, dose 25 mg/kg, 4 hr post-drug administration
[16] = rat, inhaled or intranasal, IT, 10 mg/kg
[17] = 2-10 minutes, 500 ml pH 7.4 Tris buffer, paddles 100 rpm
[18] = 10-30 minutes, pH 7.4 Tris buffer

O=C(O)CCCC[C@@H](S)CCS (racemic) [DHLA, dihydrolipoic acid]
effect on elastase activity after treatment of CF sputum (elastase): did not increase elastase activity

CC1COc2c(N3CCN(C)CC3)c(F)cc3c(=O)c(C(=O)O)cn1c23 (racemic) [Ofloxacin]
Aerosol Tolerability and Taste [1]: bitter chemical taste, mild cough sensation
distribution into sputum [2]: 79%

O=C(O)c1cn(C2CC2)c2cc(N3CCNCC3)c(F)cc2c1=O [Ciprofloxacin]
Aerosol Tolerability and Taste [1]: very strong, bitter unpleasant
SP MIC90 [3]: 2 µg/mL
MSSA MIC90 (MSSA): 1 µg/mL
MRSA MIC90 [4]: 64 µg/mL
Pa MIC90 [5]: 8 µg/mL
rank of potency against Pa [5]: most potent
penetration into lung tissues [6]: much less efficiently than levofloxacin
peak concentration, serum [7]: ~4.2 µg/mL
time of peak drug concentration, serum [7]: 1.5 h
log reduction at 25 mg/kg [8, 12]: 2.32
log reduction at 25 mg/kg [8, 13]: 1.45
log reduction at 25 mg/kg [8, 14]: 1.59
log reduction at 25 mg/kg [8, 15]: 0.41

COc1c(N2CCNC(C)C2)c(F)cc2c(=O)c(C(=O)O)cn(C3CC3)c12 (stereo not drawn) [Gatifloxacin]
Initial Solution pH (physchem): 7.0
Initial Solution Appearance (physchem): white, cloudy, visible
After pH Adjustment Appearance (physchem): slight yellow color,
After pH Adjustment pH (physchem): 3.0
solubility at 10 min (physchem): > 10000 µg/mL
pH of final solution (physchem): 3.0
Aerosol Tolerability and Taste [1]: moderate bitter unpleasant taste,
cough on aerosol exposure [1]: associated with cough
F, % from Lung vs. IV ([9]; IT, 10 mg/kg): 100%
AUC [9, 16]: 54700 ng·h/mL
AUC ([9]; rat, iv, 10 mg/kg): 5320 ng·h/mL
SP MIC90 [3]: 0.5 µg/mL
MSSA MIC90 (MSSA): 0.125 µg/mL
MRSA MIC90 [4]: 4 µg/mL
Pa MIC90 [5]: 16 µg/mL
rank of potency against Pa [5]: most potent
log reduction at 25 mg/kg [8, 12]: 1.48
log reduction at 25 mg/kg [8, 13]: 2.11
log reduction at 25 mg/kg [8, 14]: 0.34
log reduction at 25 mg/kg [8, 15]: 0.02

CO/N=C1\CN(c2nc3c(cc2F)c(=O)c(C(=O)O)cn3C2CC2)CC1CN (stereo not drawn) [Gemifloxacin mesylate]
pH of filtered solution in water [10]: 4.28 and 4.21 and 4.40 and 4.32 and 4.20

CO/N=C1\CN(c2nc3c(cc2F)c(=O)c(C(=O)O)cn3C2CC2)CC1CN (stereo not drawn) [Gemifloxacin]
Initial Solution pH (physchem): 4.7
Initial Solution Appearance (physchem): colorless, transparent, no
solubility at 10 min (physchem): > 10000 µg/mL
Aerosol Tolerability and Taste [1]: strong unpleasant bitter taste, strong
F, % from Lung vs. IV ([9]; IT, 10 mg/kg): 86%
AUC [9, 16]: 536000 ng·h/mL
AUC ([9]; rat, iv, 8 mg/kg): 3720 ng·h/mL
half-life ([9]; rat, serum, iv, 8 mg/kg, read-out: Serum t1/2 (converted)): 1.04 h
SP MIC90 [3]: 0.06 µg/mL
MSSA MIC90 (MSSA): 0.06 µg/mL
MRSA MIC90 [4]: 2 µg/mL
rank of potency against MRSA [4]: most potent
Pa MIC90 [5]: 8 µg/mL
rank of potency against Pa [5]: most potent
log reduction at 25 mg/kg [8, 12]: 3.2
log reduction at 25 mg/kg [8, 13]: 2.28

CCn1cc(C(=O)O)c(=O)c2cc(F)c(N3CCNC(C)C3)c(F)c21 (stereo not drawn) [Lomefloxacin]
Initial Solution pH (physchem): 4.2
Initial Solution Appearance (physchem): cloudy, visible sediment
After pH Adjustment Appearance (physchem): transparent, no sediment,
solubility at 10 min (physchem): > 10000 µg/mL
pH of final solution (physchem): 4.2
Aerosol Tolerability and Taste [1]: chemical taste, somewhat bitter,
SP MIC90 [3]: 16 µg/mL
MSSA MIC90 (MSSA): 2 µg/mL
MRSA MIC90 [4]: >32 µg/mL
Pa MIC90 [5]: 32 µg/mL

C[C@@H]1CN(c2c(F)c(F)c3c(=O)c(C(=O)O)cn(C4CC4)c3c2F)C[C@H](C)N1 [Orbifloxacin]
Initial Solution Appearance (physchem): white, cloudy, visible
After pH Adjustment Appearance (physchem): colorless, transparent, no
After pH Adjustment pH (physchem): 1.7
solubility at 10 min (physchem): > 10000 µg/mL
pH of final solution (physchem): 1.7
Aerosol Tolerability and Taste [1]: very acidic, strong bitter unpleasant
cough on aerosol exposure [1]: associated with cough
SP MIC90 [3]: 2 µg/mL
MSSA MIC90 (MSSA): 2 µg/mL
Pa MIC90 [5]: >32 µg/mL

NC1CCN(c2nc3c(cc2F)c(=O)c(C(=O)O)cn3-c2ccc(F)cc2F)C1 (stereo not drawn) [Tosufloxacin]
Initial Solution pH (physchem): 3.5
Initial Solution Appearance (physchem): white, turbid, visible
After pH Adjustment Appearance (physchem): white, cloudy, less turbid,
After pH Adjustment pH (physchem): 1.5
pH of final solution (physchem): 1.5
solubility on titration with 1N HCl (physchem; pH 1.5): solubility was not reached by pH 1.5
SP MIC90 [3]: 0.5 µg/mL
MSSA MIC90 (MSSA): 0.125 µg/mL
MRSA MIC90 [4]: >16 µg/mL
Pa MIC90 [5]: 16 µg/mL
log reduction at 25 mg/kg [8, 12]: 0.48
log reduction at 25 mg/kg [8, 13]: 0.24
log reduction at 25 mg/kg [8, 14]: 0
log reduction at 25 mg/kg [8, 15]: -1.33

CCC(=O)O[C@H]1[C@H](O[C@@H]2[C@@H](C)[C@H](O[C@H]3C[C@@](C)(OC)[C@@H](O)[C@H](C)O3)[C@@H](C)C(=O)O[C@H](CC)[C@@](C)(O)[C@H](O)[C@@H](C)C(=O)[C@H](C)C[C@@]2(C)O)O[C@H](C)C[C@@H]1N(C)C [erythromycin estolate]
solubility as fraction of that of the free base [11]: approximately 1/12

C[C@H]1COc2c(N3CCN(C)CC3)c(F)cc3c(=O)c(C(=O)O)cn1c23.O=C(O)c1cc2ccccc2c(Cc2c(O)c(C(=O)O)cc3ccccc23)c1O [levofloxacin pamoate]
dissolution rate (Dissolution rate studies; [17]): approximately 0.146 mg/min
dissolution rate (Dissolution rate studies; 10-60 minutes, pH 7.4 Tris buffer): 0.0331 mg/min

CCCCCCCCCCCCCCCCCC(=O)O.C[C@H]1COc2c(N3CCN(C)CC3)c(F)cc3c(=O)c(C(=O)O)cn1c23 [levofloxacin stearate]
dissolution rate (Dissolution rate studies; [17]): 0.499 mg/min
dissolution rate (Dissolution rate studies; [18]): 0.161 mg/min

C[C@H]1COc2c(N3CCN(C)CC3)c(F)cc3c(=O)c(C(=O)O)cn1c23.O=C(O)c1ccc2ccccc2c1O [levofloxacin xinafoate]
dissolution rate (Dissolution rate studies; [17]): approximately 1.24 mg/min
dissolution rate (Dissolution rate studies; [18]): 0.28 mg/min

DNase
increase of sol elastase activity after treatment of CF sputum (elastase): 190%

B1: reduced rhTrx: stable reduced form of recombinant human thioredoxin (protein, UniProt P10599 2-105, looked up)
Thioredoxin: VKQIESKTAFQEALDAAGDKLVVVDFSATWCGPCKMIKPFFHSLSEKYSNVIFLEVDVDDCQDVASECEVKCMPTFQFFKKGQKVGEFSGANKEKLEATINELV
modifications: reduced form
increase of sol elastase activity after treatment of CF sputum (elastase): 60%
